≈ marks a conversion by molar mass, not a printed value. Where two headings read alike, the source gives them in different places.
Key:
[1] = system: human red blood cells (hRBC's); assay: Hemolysis assay; type: cell-based
Description: Freshly drawn human red blood cells (hRBC's) with additive K2 EDTA (spray-dried) were washed with PBS buffer several times and centrifuged at 1000 g for 10 min until a clear supernatant was observed. The hRBC's were resuspended in 1×PBS to get a 5% v/v suspension. Two-fold serial dilutions of γ-AApeptides dissolved in 1×PBS from 250 μg/ml through 1.6 μg/ml were added to a sterile 96-well plate to make up a total volume of 50 μL in each well. Then 50 μL of 5% v/v hRBC solution was added to make up a total volume of 100 μL in each well. The 0% hemolysis point and 100% hemolysis point were determined in 1×PBS and 0.2% Triton-X-100, respectively (Patch et al., 2003). The plate was then incubated at 37° C. for 1 h and centrifuged at 3500 rpm for 10 min. The supernatant (30 μL) was diluted with 100 μL of 1×PBS and absorption was detected by measuring the optical density at 360 nm by Biotek Synergy HT microtiter plate reader. % hemolysis was determined by the following equation: % hemolysis=(Abssample−AbsPBS)/(AbsTriton−AbsPBS)×100 H50 is the concentration of γ-AApeptide amphiphiles at which 50% hemolysis was observed. The highest concentration tested in the hemolytic assay was 500 μg/ml. 7. Fluorescence Microscopy
The sequences shown in FIG. 12 were also evaluated via hemolytic assays. Freshly drawn human red blood cells (hRBC's) with additive K2 EDTA (spray-dried) were washed with PBS buffer several times and centrifuged at 1000 g for 10 min until a clear supernatant was observed. The hRBC's were resuspended in 1×PBS to get a 5% v/v suspension. Two-fold serial dilutions of lipidated γ-AApeptides dissolved in 1×PBS from 1 mg/ml through 6.3 μg/ml were added to sterile 96-well plates to make up a total volume of 50 μL in each well. Then 50 μL of 5% v/v hRBC solution was added to make up a total volume of 100 μL in each well. The 0% hemolysis point and 100% hemolysis point were determined in 1×PBS and 0.2% Triton-X-100, respectively (Patch et al., 2003). The plate was then incubated at 37° C. for 1 h and centrifuged at 3500 rpm for 10 min. The supernatant (30 μL) was diluted with 100 μL of 1×PBS and absorption was detected by measuring the optical density at 360 nm with a Biotek Synergy HT microtiter plate reader. % hemolysis was determined by the following equation: % hemolysis=(Abs sample−Abs PBS)/(Abs Triton−Abs PBS)×100

[2] = system: K. pneumoniae (ATCC 13383)
[3] = system: vancomycin-resistant E. faecalis (ATCC 700802)
[4] = system: methicillin-resistant S. aureus (ATCC 33592)
[5] = system: multi-drug resistant S. epidermidis (RP62A)
[6] = system: C. albicans (ATCC 10231)
[7] = system: B. subtilis (BR151)
[8] = system: multi-drug resistant P. aeruginosa ATCC 27853
[9] = system: E. coli (JM109)
[10] = Table 5, first value of H10/H50
[11] = Table 5, second value of H10/H50

Row | SMILES | Hemolysis H10 [1, 10] | Hemolysis H50 [1, 11] | MIC, K. pneumoniae [2] | MIC, Fungus C. albicans ([6]; ATCC 10231) | Hemolysis H10 [1] | Hemolysis H50 [1] | MIC, B. subtilis [7] | MIC, E. faecalis (VREF) ([3]; Table 5) | MIC, S. aureus (MRSA) ([4]; Table 5) | MIC, S. epidermidis (MRSE) ([5]; Table 5) | MIC, E. coli [9] | MIC, K. pneumoniae (causing pneumonia) [2] | also measured
1 | CC(C)CCC(=O)N1CC(=O)N[C@@H](Cc2ccccc2)CN(C(=O)CCC(C)C)CC(=O)N[C@@H](Cc2ccccc2)CN(C(=O)CCC(C)C)CC(=O)N[C@@H](CCCCN)CN(C(=O)CCc2ccccc2)CC(=O)N[C@@H](CCCCN)CN(C(=O)CCc2ccccc2)CC(=O)N[C@@H](CCCCN)CN(C(=O)CCc2ccccc2)CC(=O)N[C@@H](Cc2ccccc2)CN(CC(N)=O)C(=O)CCC(=O)N[C@@H](Cc2ccccc2)C1 [HW-B-14] | 45 µg/mL | 300 µg/mL | 10 µg/mL (≈ 4.84 µM) | 4 µg/mL (≈ 1.94 µM) | – | – | – | – | – | – | – | – | MIC, E. faecalis (VREF) ([3]; ATCC 700802): 5 µg/mL (≈ 2.42 µM); MIC, S. aureus (MRSA) ([4]; ATCC 33592): 3 µg/mL (≈ 1.45 µM); MIC, S. epidermidis (MRSE) ([5]; multi-drug resistant (RP62A)): 2 µg/mL (≈ 0.969 µM)
2 | CC(C)CCC(=O)N1CC(=O)N[C@@H](CCCCN)CN(C(=O)CCc2ccccc2)CC(=O)N[C@@H](Cc2ccccc2)CN(CC(N)=O)C(=O)CCC(=O)N[C@@H](CCCCN)CN(C(=O)CCc2ccccc2)CC(=O)N[C@@H](Cc2ccccc2)CN(C(=O)CCC(C)C)CC(=O)N[C@@H](CCCCN)CN(C(=O)CCc2ccccc2)CC(=O)N[C@@H](CCCCN)CN(C(=O)CCc2ccccc2)CC(=O)N[C@@H](Cc2ccccc2)C1 [HW-B-12] | – | – | 5 µg/mL (≈ 2.4 µM) | 5 µg/mL (≈ 2.4 µM) | 150 µg/mL | 450 µg/mL | 5 µg/mL (≈ 2.4 µM) | 8 µg/mL (≈ 3.85 µM) | 6 µg/mL (≈ 2.88 µM) | 5 µg/mL (≈ 2.4 µM) | – | – | MIC, P. aeruginosa ([8]; ATCC 27853): > 50 µg/mL
3 | CC(C)CCC(=O)N1CC(=O)N[C@@H](CCCCN)CN(C(=O)CCc2ccccc2)CC(=O)N[C@@H](CCCCN)CN(C(=O)CCc2ccccc2)CC(=O)N[C@@H](Cc2ccccc2)CN(CC(N)=O)C(=O)CCC(=O)N[C@@H](CCCCN)CN(C(=O)CCc2ccccc2)CC(=O)N[C@@H](CCCCN)CN(C(=O)CCc2ccccc2)CC(=O)N[C@@H](CCCCN)CN(C(=O)CCc2ccccc2)CC(=O)N[C@@H](Cc2ccccc2)C1 [HW-B-11] | 200 µg/mL | > 500 µg/mL | 20 µg/mL (≈ 9.55 µM) | – | – | – | – | – | – | – | – | – | MIC, E. faecalis (VREF) ([3]; ATCC 700802): 15 µg/mL (≈ 7.16 µM); MIC, S. aureus (MRSA) ([4]; ATCC 33592): 5 µg/mL (≈ 2.39 µM); MIC, P. aeruginosa ([8]; Table 5): 10 µg/mL (≈ 4.77 µM); MIC, S. epidermidis (MRSE) ([5]; multi-drug resistant (RP62A)): 2 µg/mL (≈ 0.955 µM); MIC, Fungus C. albicans ([6]; Table 5): 5 µg/mL (≈ 2.39 µM)
4 | NCCCC[C@H]1CN(C(=O)CCc2ccccc2)CC(=O)N[C@@H](CCCCN)CN(C(=O)CCc2ccccc2)CC(=O)N[C@@H](CCCCN)CN(C(=O)CCc2ccccc2)CC(=O)N[C@@H](CCCCN)CN(C(=O)CCc2ccccc2)CC(=O)N[C@@H](Cc2ccccc2)CN(CC(N)=O)C(=O)CCC(=O)N1 [HW-B-3] | > 500 µg/mL | > 500 µg/mL | > 50 µg/mL | > 50 µg/mL | – | – | 25000 to 50000 µg/mL | > 50 µg/mL | > 50 µg/mL | > 50 µg/mL | – | – | MIC, P. aeruginosa ([8]; Table 5): > 50 µg/mL
5 | CC(C)CCC(=O)N1CC(=O)N[C@@H](Cc2ccccc2)CN(C(=O)CCC(C)C)CC(=O)N[C@@H](CCCCN)CN(C(=O)CCc2ccccc2)CC(=O)N[C@@H](CCCCN)CN(C(=O)CCc2ccccc2)CC(=O)N[C@@H](CCCCN)CN(C(=O)CCc2ccccc2)CC(=O)N[C@@H](CCCCN)CN(C(=O)CCc2ccccc2)CC(=O)N[C@@H](Cc2ccccc2)CN(CC(N)=O)C(=O)CCC(=O)N[C@@H](Cc2ccccc2)C1 [HW-B-13] | – | – | 8 µg/mL (≈ 3.85 µM) | 2 µg/mL (≈ 0.962 µM) | 40 µg/mL | 100 µg/mL | – | 5 µg/mL (≈ 2.4 µM) | 1 | 2 µg/mL (≈ 0.962 µM) | – | – | –
6 | CC(C)CCC(=O)N1CC(=O)N[C@@H](CCCCN)CN(C(=O)CCc2ccccc2)CC(=O)N[C@@H](CCCCN)CN(C(=O)CCc2ccccc2)CC(=O)N[C@@H](Cc2ccccc2)CN(CC(N)=O)C(=O)CCC(=O)N[C@@H](CCCCN)CN(C(=O)CCc2ccccc2)CC(=O)N[C@@H](CCCCN)CN(C(=O)CCc2ccccc2)CC(=O)N[C@@H](CCCCN)CN(C(=O)CCc2ccccc2)CC(=O)N[C@@H](Cc2ccccc2)C1 [γAA4] | – | – | – | – | – | – | 2 µg/mL (≈ 0.955 µM) | – | – | – | 3.1 to 6.3 µg/mL | >100 µg/mL | Hemolysis (H50) ([1]; Table 3): >500 µg/mL; MIC, E. faecalis (vancomycin-resistant) ([3]; ATCC 700802): 12.5 to 25 µg/mL; MIC, S. aureus (methicillin-resistant) ([4]; ATCC 33592): 3.1 to 6.3 µg/mL; MIC, S. epidermidis (multi-drug resistant) ([5]; multi-drug resistant (RP62A)): 2 µg/mL (≈ 0.955 µM); MIC, Fungi C. albicans ([6]; ATCC 10231): 3 to 6 µg/mL
7 | NCCCC[C@H](N)CN(CC(=O)N[C@@H](CCCCN)CN(CC(=O)N[C@@H](CCCCN)CN(CC(=O)N[C@@H](CCCCN)CN(CC(=O)N[C@@H](CCCCN)CN(CC(N)=O)C(=O)CCc1ccccc1)C(=O)CCc1ccccc1)C(=O)CCc1ccccc1)C(=O)CCc1ccccc1)C(=O)CCc1ccccc1 [γ2] | – | – | – | – | – | – | 5 µg/mL (≈ 3.26 µM) | – | – | – | 25 µg/mL (≈ 16.3 µM) | >100 µg/mL | MIC, E. faecalis (vancomycin-resistant) ([3]; Table 1): >100 µg/mL; MIC, S. aureus (methicillin-resistant) ([4]; Table 1): >100 µg/mL; MIC, S. epidermidis (multi-drug resistant) ([5]; Table 1): >100 µg/mL
8 | NCCCC[C@H]1CN(C(=O)CCc2ccccc2)CC(=O)N[C@@H](CCCCN)CN(C(=O)CCc2ccccc2)CC(=O)N[C@@H](CCCCN)CN(C(=O)CCc2ccccc2)CC(=O)N[C@@H](CCCCN)CN(C(=O)CCc2ccccc2)CC(=O)N[C@@H](CCCCN)CN(C(=O)CCc2ccccc2)CC(=O)N[C@@H](Cc2ccccc2)CN(CC(N)=O)C(=O)CCC(=O)N1 [HW-B-4] | – | – | > 50 µg/mL | > 50 µg/mL | > 500 µg/mL | > 500 µg/mL | 10 µg/mL (≈ 5.54 µM) | 20 µg/mL (≈ 11.1 µM) | > 50 µg/mL | 10 µg/mL (≈ 5.54 µM) | – | – | MIC, P. aeruginosa ([8]; ATCC 27853): 20 µg/mL (≈ 11.1 µM)
9 | NCCCC[C@H](N)CN(CC(=O)N[C@@H](CCCCN)CN(CC(=O)N[C@@H](CCCCN)CN(CC(N)=O)C(=O)CCc1ccccc1)C(=O)CCc1ccccc1)C(=O)CCc1ccccc1 [γ1] | – | – | – | – | – | – | >100 µg/mL | – | – | – | >100 µg/mL | >100 µg/mL | MIC, E. faecalis (vancomycin-resistant) ([3]; Table 1): >100 µg/mL; MIC, S. aureus (methicillin-resistant) ([4]; Table 1): >100 µg/mL; MIC, S. epidermidis (multi-drug resistant) ([5]; Table 1): >100 µg/mL

— US10308686B2, “Gamma-AApeptides with potent and broad-spectrum antimicrobial activity” (priority 2012, dated 2019)
